Like-named read-outs stand apart in the source and are kept apart here.
Assays:
Type in all cases: biochemical
[1] = biological target: CDK2 enzyme, complexed with cyclin A (Homo sapiens, UniProt P24941); test: CDK2 cyclin dependent kinase assay, phosphorylation of synthetic peptide […] (33P-ATP filtration); details: Table 1; 0.1 mM ATP
Experimental: (§1) The assay mixture containing the inhibitor and CDK2 enzyme, complexed with cyclin A (0.4 U/ml) was mixed together in a microtiter plate in a final volume of 50 μl and incubated for 40 min at 30° C. The assay mixture contained 0.1 mM unlabeled ATP, 0.01 μCi/μl ^33P-γ-ATP, 0.03 mM peptide, 0.1 mg/ml BSA, 7.5 mM magnesium acetate, 50 mM HEPES-NaOH, pH 7.5. The reaction was stopped by adding 50 μl of 50 mM phosphoric acid. 90 μl of the mixture were transferred to a pre-wetted 96-well Multiscreen MAPHNOB filtration plate (Millipore) and filtered on a vacuum manifold. The filter plate was washed with three successive additions of 200 μl 50 mM phosphoric acid and then with 100 μl methanol. The filtration plate was dried for 10 min at 65° C., scintillant added and phosphorylated peptide quantified in a scintillation counter (Trilux, PerkinElmer).
HEPES is N-[2-hydroxyethyl]piperazine-N′-[2-ethanesulfonic acid]. BSA is bovine serum albumin.

PDK1 enzyme = biological target: T1, PDK1 enzyme (Homo sapiens, UniProt O15530); test: PDK1 3'-phosphoinositide-dependent kinase assay, phosphorylation of synthetic peptide (33P-ATP filtration)
T1 sequence (O15530 1-556): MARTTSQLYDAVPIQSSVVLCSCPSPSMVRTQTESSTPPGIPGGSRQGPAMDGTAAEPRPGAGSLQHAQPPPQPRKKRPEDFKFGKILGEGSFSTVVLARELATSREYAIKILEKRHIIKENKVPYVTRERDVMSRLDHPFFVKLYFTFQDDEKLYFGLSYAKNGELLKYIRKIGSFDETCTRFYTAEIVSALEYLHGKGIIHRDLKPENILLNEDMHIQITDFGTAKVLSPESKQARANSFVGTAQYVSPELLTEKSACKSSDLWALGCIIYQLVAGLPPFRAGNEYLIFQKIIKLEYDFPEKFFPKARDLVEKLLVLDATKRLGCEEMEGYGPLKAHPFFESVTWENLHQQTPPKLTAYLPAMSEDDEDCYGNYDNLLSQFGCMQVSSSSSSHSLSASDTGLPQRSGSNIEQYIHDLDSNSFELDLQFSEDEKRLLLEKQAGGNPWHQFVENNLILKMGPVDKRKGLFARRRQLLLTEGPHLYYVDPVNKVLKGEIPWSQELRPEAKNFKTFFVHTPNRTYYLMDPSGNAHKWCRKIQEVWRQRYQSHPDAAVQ
Experimental: as §1, with “and PDK1 enzyme” for “and CDK2 enzyme, complexed with cyclin A (0.4 U/ml)”, “for 60” for “for 40”, “contained 0.01” for “contained 0.1”, “^33P-γ-ATP, 0.075” for “^33P-γ-ATP, 0.03”, “acetate, 0.05 M Tris.HCl,” for “acetate, 50 mM HEPES-NaOH,”, “pH 7.5, 0.5% 2-mercaptoethanol.” for “pH 7.5.”

Chk1 = biological target: T2, Chk1 (Homo sapiens, UniProt O14757); test: Chk1 kinase assay, phosphorylation of Chktide (33P-ATP filtration)
T2 sequence (O14757 1-476): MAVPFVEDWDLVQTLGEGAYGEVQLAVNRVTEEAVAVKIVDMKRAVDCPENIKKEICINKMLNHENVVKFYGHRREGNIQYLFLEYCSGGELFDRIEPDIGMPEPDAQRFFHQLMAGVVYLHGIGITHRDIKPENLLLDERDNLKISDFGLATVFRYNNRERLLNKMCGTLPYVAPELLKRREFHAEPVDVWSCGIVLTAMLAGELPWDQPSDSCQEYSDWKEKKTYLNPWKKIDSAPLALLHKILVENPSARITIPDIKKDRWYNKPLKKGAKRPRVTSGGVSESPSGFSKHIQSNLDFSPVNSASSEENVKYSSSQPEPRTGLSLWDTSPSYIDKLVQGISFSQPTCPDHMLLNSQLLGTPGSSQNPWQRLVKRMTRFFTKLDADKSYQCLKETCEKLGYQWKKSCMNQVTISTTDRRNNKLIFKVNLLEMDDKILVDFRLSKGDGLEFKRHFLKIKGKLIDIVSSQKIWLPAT
Experimental: Assays for the Chk1 kinase activity were carried out by monitoring the phosphorylation of a synthetic peptide Chktide with the amino acid sequence, […]. The assay mixture containing the inhibitor and Chk1 enzyme was mixed together in a microtiter plate in a final volume of 50 μl and incubated for 40 minutes at 30° C.
The assay mixture contained 0.01 mM unlabeled ATP, 0.5 μCi ^33P-γ-ATP, 30 μM Chktide, 0.1 mg/ml BSA, 50 mM Hepes-NaOH pH 7.5 and 11 nM GST-Chk1 enzyme. The reaction was stopped by adding 50 μl of 50 mM phosphoric acid. 90 μl of the mixture was transferred to a pre-wetted 96-well Multiscreen MAPHNOB filtration plate (Millipore) and filtered on a vacuum manifold. The filter plate was washed with three successive additions of 200 μl 50 mM phosphoric acid and then with 100 μl methanol. The filtration plate was dried for 10 min at 65° C., scintillant added and phosphorylated peptide quantified in a scintillation counter (Trilux, PerkinElmer).

[2] = Table 1, 0.01 mM ATP, read-out: PDK1 IC50
[3] = Table 1, 0.01 mM ATP, read-out: Chk1 IC50
[4] = Table 4, 0.01 mM ATP, read-out: PDK1 IC50
[5] = Table 4, 0.01 mM ATP, read-out: Chk1 IC50

| SMILES | IC50 [1] [µM] | IC50 (PDK1 enzyme; [2]) [µM] | IC50 (Chk1; [3]) [µM] | IC50 (PDK1 enzyme; [4]) [µM] | IC50 (Chk1; [5]) [µM] | further results |
| --- | --- | --- | --- | --- | --- | --- |
| Clc1cc(NCc2ccccc2)n2ncnc2n1 [Example 6] | 85 | > 200 | > 200 |  |  |  |
| NS(=O)(=O)c1ccc(Nc2cc(NC(CCO)c3ccccc3)nc3ncnn23)cc1 (centres unmarked) [Example 10] | 5.74 | > 200 | > 200 |  |  |  |
| COc1ccc(Br)cc1-c1cc(N[C@H]2CC[C@H](O)CC2)n2ncnc2n1 [Example 16] | 48 | > 200 | > 200 |  |  |  |
| Brc1cccc(-c2cc(NCc3ccncc3)n3ncnc3n2)c1 [Example 55] |  |  |  |  |  | IC50 (PDK1 enzyme): > 200 µM; IC50 (Chk1): > 200 µM |
| CCN(CC)c1cc(NCC2CCNCC2)n2ncnc2n1 [Example 86] |  |  |  |  |  | IC50 (PDK1 enzyme; Table 2, 0.01 mM ATP, read-out: PDK1 IC50): > 200 µM; IC50 (Chk1; Table 2, 0.01 mM ATP, read-out: Chk1 IC50): > 200 µM |
| NC(=O)c1ccc(Nc2cc(-c3cccc(O)c3)n3ncnc3n2)cc1 [Example 142] |  |  |  | 4.66 | 3.92 |  |
| NC(=O)Cc1ccc(Nc2cc(-c3ccc4c(c3)OCO4)n3ncnc3n2)cc1 [Example 143] |  |  |  | 11.4 | 4.71 |  |
| CCOc1cccc(-c2cc(Nc3ccc(C(N)=O)cc3)nc3ncnn23)c1 [Example 144] |  |  |  | 12.2 | 68.3 |  |
| NC(=O)c1ccc(Nc2cc(-c3cccc(OCC4CCNCC4)c3)n3ncnc3n2)cc1 [Example 150] |  |  |  | 14.6 | 19.7 |  |
| Fc1cccc(-c2cc(Nc3cccc(Oc4ccccc4)c3)nc3ncnn23)c1 [Example 152] |  |  |  | 13.4 | 32.7 |  |
| Fc1cccc(-c2cc(Nc3ccc(Oc4ccccc4)cc3)nc3ncnn23)c1 [Example 153] |  |  |  | 12 | 24.7 |  |
| Fc1cccc(-c2cc(Nc3ccc(Sc4ccccc4)cc3)nc3ncnn23)c1 [Example 155] |  |  |  | 12.6 | 15.1 |  |
| O=S(=O)(Nc1nccs1)c1ccc(Nc2cc(-c3cccc(F)c3)n3ncnc3n2)cc1 [Example 156] |  |  |  | 7.94 | 13 |  |
| CN(C)c1ccc(Nc2cc(-c3cccc(F)c3)n3ncnc3n2)cc1 [Example 158] |  |  |  | 10.5 | 6.75 |  |
| CNS(=O)(=O)Cc1ccc(Nc2cc(-c3cccc(F)c3)n3ncnc3n2)cc1 [Example 159] |  |  |  | 7.66 | 22.6 |  |
| CCCc1cc(OC)cc(-c2cc(Nc3ccc(C(N)=O)cc3)nc3ncnn23)c1 [Example 160] |  |  |  | 1.32 | 15.8 |  |
| CCCc1cc(OCCN)cc(-c2cc(Nc3ccc(C(N)=O)cc3)nc3ncnn23)c1 [Example 161] |  |  |  | 1.66 | 9.04 |  |
| CCCc1cc(OCCN(C)C)cc(-c2cc(Nc3ccc(C(N)=O)cc3)nc3ncnn23)c1 [Example 162] |  |  |  | 7.34 | 31.7 |  |
| CN(C)CCOc1cccc(-c2cc(Nc3ccc(C(N)=O)cc3)nc3ncnn23)c1 [Example 163] |  |  |  | 5.44 | 9.82 |  |
| CCc1cc(O)cc(-c2cc(Nc3ccc(C(=O)NCCN(CC)CC)cc3)nc3ncnn23)c1 [Example 164] |  |  |  | 1.6 | 0.66 |  |
| CCc1cc(OCCN)cc(-c2cc(Nc3ccc(C(=O)NCCN(CC)CC)cc3)nc3ncnn23)c1 [Example 167] |  |  |  | 3.99 | 3.39 |  |

Continued, in another order:

| IC50 [1] [µM] | IC50 (PDK1 enzyme; [2]) [µM] | IC50 (Chk1; [3]) [µM] | IC50 (PDK1 enzyme; [4]) [µM] | IC50 (Chk1; [5]) [µM] | SMILES | further results |
| --- | --- | --- | --- | --- | --- | --- |
| 20.1 | > 200 | > 200 |  |  | NS(=O)(=O)c1ccc(Nc2cc(Cl)nc3ncnn23)cc1 [Example 1, 7-(4-Aminosulfonylphenylamino)-5-chlorotriazolol[1,5-a]pyrimidine] |  |
|  | > 200 | > 200 |  |  | NS(=O)(=O)c1ccc(Nc2cc(OC3CCCCC3)nc3ncnn23)cc1 [Example 2, 7-(4-Aminosulfonylphenylamino)-5-cyclohexyloxytriazolo[1,5-a]pyrimidine] |  |
| 1.82 | > 200 | > 200 |  |  | Cc1cccc(-c2cc(Nc3ccc(S(N)(=O)=O)cc3)n3ncnc3n2)c1 [Example 3, 7-(4-Aminosulfonylphenylamino)-5-(3-methylphenyl)triazolo[1,5-a]pyrimidine] |  |
| 0.39 | > 200 | > 200 |  |  | CCN(CC)c1cc(Nc2ccc(S(N)(=O)=O)cc2)n2ncnc2n1 [Example 4, 4-(5-Diethylamino-[1,2,4]triazolo[1,5-a]pyrimidine-7-ylamino)-benzenesulfonamide] |  |
| 6.4 | > 200 | > 200 |  |  | C[C@H]1CCCC(Oc2cc(Nc3ccc(S(N)(=O)=O)cc3)n3ncnc3n2)C1 (some centres unmarked) [Example 5] |  |
| 22.7 | > 200 | > 200 |  |  | O=S(=O)(c1ccc(Nc2cc(Cl)nc3ncnn23)cc1)N1CCC(O)CC1 [Example 7] |  |
| 48.2 | > 200 | > 200 |  |  | CN(C)S(=O)(=O)c1ccc(Nc2cc(Cl)nc3ncnn23)cc1 [Example 8] |  |
| 0.89 | > 200 | > 200 |  |  | CC(C)Nc1cc(Nc2ccc(S(N)(=O)=O)cc2)n2ncnc2n1 [Example 9] |  |
| 0.55 | > 200 | > 200 |  |  | NS(=O)(=O)c1ccc(Nc2cc(NC3CCCC3)nc3ncnn23)cc1 [Example 11] |  |
| 13 | > 200 | > 200 |  |  | CCOc1cc(Nc2ccc(S(N)(=O)=O)cc2)n2ncnc2n1 [Example 12] |  |
| 20.1 | > 200 | > 200 |  |  | NS(=O)(=O)c1ccc(Nc2cc(Oc3ccccc3)nc3ncnn23)cc1 [Example 13] |  |
| 1.85 | > 200 | > 200 |  |  | CC(C)COc1cc(Nc2ccc(S(N)(=O)=O)cc2)n2ncnc2n1 [Example 14] |  |
| 11.3 | > 200 | > 200 |  |  | NS(=O)(=O)c1ccc(CNc2cc(OC3CCCCC3)nc3ncnn23)cc1 [Example 15] |  |
| 16.7 | > 200 | > 200 |  |  | O=S(=O)(c1ccc(Nc2cc(Cl)nc3ncnn23)cc1)N1CCOCC1 [Example 17] |  |
|  | 43.3 | 93.5 |  |  | NS(=O)(=O)c1ccc(Nc2cc(N[C@H]3CC[C@H](N)CC3)nc3ncnn23)cc1 [Example 36] |  |
|  | 64 | > 200 |  |  | NS(=O)(=O)c1ccc(Nc2cc(NC3CCCCC3)nc3ncnn23)cc1 [Example 37] |  |
|  | > 200 | > 200 |  |  | NS(=O)(=O)c1ccc(Nc2cc(OCC3CCCCC3)nc3ncnn23)cc1 [Example 51] |  |

— patent publication US20070275961A1, “Triazolo ' 1, 5-A ! Pyrimidines and Their Use in Medicine” (VERNALIS (CAMBRIDGE) LIMITED., priority 2003, published 2007)
